Assays:
Experiment in all cases: relative viability (nuclei count vs DMSO), 5 days (fraction); higher = more cells survive
HOP-62 = system: HOP-62
Outline: (§1)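 Lung cancer cell lines were pin-tool dosed in 1536-well plates on the day after seeding, with either a lone drug or a fixed anchor-drug dose plus five library-drug doses (not always all listed) in √10 steps. Nuclei were counted on 4× images after 5 days. Relative viability is the ratio of treated-well to vehicle-well nuclei counts, with each value a median of duplicate plates.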

NCI-H460 = system: NCI-H460
Outline: as §1

SK-LU-1 = system: SK-LU-1
Outline: as §1

HCC-366 = system: HCC-366
Outline: as §1

NCI-H1792 = system: NCI-H1792
Outline: as §1

EMC-BAC-2 = system: EMC-BAC-2
Outline: as §1

HCC-827 = system: HCC-827
Outline: as §1

SW 1573 = system: SW 1573
Outline: as §1

NCI-H2009 = system: NCI-H2009
Outline: as §1

NCI-H1755 = system: NCI-H1755
Outline: as §1

NCI-H727 = system: NCI-H727
Outline: as §1

NCI-H2228 = system: NCI-H2228
Outline: as §1

NCI-H1437 = system: NCI-H1437
Outline: as §1

HARA = system: HARA
Outline: as §1

COR-L 105 = system: COR-L 105
Outline: as §1

A-427 = system: A-427
Outline: as §1

NCI-H23 = system: NCI-H23
Outline: as §1

LCLC-103H = system: LCLC-103H
Outline: as §1

CAL-12T = system: CAL-12T
Outline: as §1

NCI-H1915 = system: NCI-H1915
Outline: as §1

## COc1nc(C)cnc1NS(=O)(=O)c1cccnc1-c1ccc(-c2nnco2)cc1 [Zibotentan] + CC(C)C[C@H](NC(=O)[C@H](Cc1ccccc1)NC(=O)c1cnccn1)B(O)O [Bortezomib] (partner 0.002 µM)
HOP-62; first compound 0.08 µM
  relative viability: 0.732
HOP-62; first compound 0.253 µM
  relative viability: 0.625
HOP-62; first compound 0.8 µM
  relative viability: 1.08
HOP-62; first compound 2.53 µM
  relative viability: 0.724
NCI-H460; first compound 0.08 µM
  relative viability: 1.25
NCI-H460; first compound 0.8 µM
  relative viability: 1.11
NCI-H460; first compound 2.53 µM
  relative viability: 1.2
SK-LU-1; first compound 0.08 µM
  relative viability: 1.17
SK-LU-1; first compound 0.253 µM
  relative viability: 0.988
SK-LU-1; first compound 0.8 µM
  relative viability: 1.08
SK-LU-1; first compound 2.53 µM
  relative viability: 1.11
HCC-366; first compound 0.08 µM
  relative viability: 1.14
HCC-366; first compound 0.253 µM
  relative viability: 1.03
HCC-366; first compound 0.8 µM
  relative viability: 0.795
HCC-366; first compound 2.53 µM
  relative viability: 1.11
NCI-H1792; first compound 0.08 µM
  relative viability: 0.912
NCI-H1792; first compound 0.253 µM
  relative viability: 0.833
NCI-H1792; first compound 0.8 µM
  relative viability: 0.921
NCI-H1792; first compound 2.53 µM
  relative viability: 0.935
EMC-BAC-2; first compound 0.08 µM
  relative viability: 1.18
EMC-BAC-2; first compound 0.253 µM
  relative viability: 1.04
EMC-BAC-2; first compound 0.8 µM
  relative viability: 1.07
EMC-BAC-2; first compound 2.53 µM
  relative viability: 1.09
HCC-827; first compound 0.08 µM
  relative viability: 1.08
HCC-827; first compound 0.253 µM
  relative viability: 0.994
HCC-827; first compound 0.8 µM
  relative viability: 1.05
HCC-827; first compound 2.53 µM
  relative viability: 1.04
SW 1573; first compound 0.08 µM
  relative viability: 1
SW 1573; first compound 0.253 µM
  relative viability: 0.847
SW 1573; first compound 0.8 µM
  relative viability: 1.05
SW 1573; first compound 2.53 µM
  relative viability: 1.28
NCI-H2009; first compound 0.08 µM
  relative viability: 1.04
NCI-H2009; first compound 0.253 µM
  relative viability: 0.973
NCI-H2009; first compound 0.8 µM
  relative viability: 1.11
NCI-H2009; first compound 2.53 µM
  relative viability: 1.12
NCI-H1755; first compound 0.08 µM
  relative viability: 0.945
NCI-H1755; first compound 0.253 µM
  relative viability: 0.952
NCI-H1755; first compound 0.8 µM
  relative viability: 0.968
NCI-H1755; first compound 2.53 µM
  relative viability: 0.97
NCI-H727; first compound 0.08 µM
  relative viability: 0.745
NCI-H727; first compound 0.253 µM
  relative viability: 0.768
NCI-H727; first compound 0.8 µM
  relative viability: 0.966
NCI-H727; first compound 2.53 µM
  relative viability: 0.805
NCI-H2228; first compound 0.08 µM
  relative viability: 0.801
NCI-H2228; first compound 0.253 µM
  relative viability: 0.821
NCI-H2228; first compound 0.8 µM
  relative viability: 0.97
NCI-H2228; first compound 2.53 µM
  relative viability: 1.07
NCI-H1437; first compound 0.08 µM
  relative viability: 0.486
NCI-H1437; first compound 0.253 µM
  relative viability: 0.504
NCI-H1437; first compound 0.8 µM
  relative viability: 0.454
NCI-H1437; first compound 2.53 µM
  relative viability: 0.53
HARA; first compound 0.08 µM
  relative viability: 1.18
HARA; first compound 0.253 µM
  relative viability: 1.13
HARA; first compound 0.8 µM
  relative viability: 1.15
HARA; first compound 2.53 µM
  relative viability: 1.19
COR-L 105; first compound 0.08 µM
  relative viability: 0.819
COR-L 105; first compound 0.253 µM
  relative viability: 0.694
COR-L 105; first compound 0.8 µM
  relative viability: 0.859
COR-L 105; first compound 2.53 µM
  relative viability: 0.994
A-427; first compound 0.08 µM
  relative viability: 1.05
A-427; first compound 0.253 µM
  relative viability: 1.06
A-427; first compound 0.8 µM
  relative viability: 1.02
A-427; first compound 2.53 µM
  relative viability: 1.01
NCI-H23; first compound 0.08 µM
  relative viability: 1.25
NCI-H23; first compound 0.253 µM
  relative viability: 1.1
NCI-H23; first compound 0.8 µM
  relative viability: 0.999
NCI-H23; first compound 2.53 µM
  relative viability: 1.29
LCLC-103H; first compound 0.08 µM
  relative viability: 1.02
LCLC-103H; first compound 0.253 µM
  relative viability: 1
LCLC-103H; first compound 0.8 µM
  relative viability: 1.27
LCLC-103H; first compound 2.53 µM
  relative viability: 1.04
CAL-12T; first compound 0.08 µM
  relative viability: 0.941
CAL-12T; first compound 0.8 µM
  relative viability: 1.01
CAL-12T; first compound 2.53 µM
  relative viability: 1.01
NCI-H1915; first compound 0.08 µM
  relative viability: 1.1
NCI-H1915; first compound 0.253 µM
  relative viability: 0.986
NCI-H1915; first compound 0.8 µM
  relative viability: 1.01
NCI-H1915; first compound 2.53 µM
  relative viability: 0.965

## COc1nc(C)cnc1NS(=O)(=O)c1cccnc1-c1ccc(-c2nnco2)cc1 [Zibotentan] + C[C@@H](Oc1cc(-c2cnn(C3CCNCC3)c2)cnc1N)c1c(Cl)ccc(F)c1Cl [Crizotinib] (partner 1 µM)
HOP-62; first compound 0.08 µM
  relative viability: 0.854
HOP-62; first compound 0.253 µM
  relative viability: 0.862
HOP-62; first compound 0.8 µM
  relative viability: 1.02
HOP-62; first compound 2.53 µM
  relative viability: 1.06
NCI-H460; first compound 0.08 µM
  relative viability: 1.2
NCI-H460; first compound 0.8 µM
  relative viability: 1.01
NCI-H460; first compound 2.53 µM
  relative viability: 0.903
SK-LU-1; first compound 0.08 µM
  relative viability: 0.879
SK-LU-1; first compound 0.253 µM
  relative viability: 0.841
SK-LU-1; first compound 0.8 µM
  relative viability: 0.928
SK-LU-1; first compound 2.53 µM
  relative viability: 1.05
HCC-366; first compound 0.08 µM
  relative viability: 0.774
HCC-366; first compound 0.253 µM
  relative viability: 0.572
HCC-366; first compound 0.8 µM
  relative viability: 0.475
HCC-366; first compound 2.53 µM
  relative viability: 0.499
NCI-H1792; first compound 0.08 µM
  relative viability: 1.19
NCI-H1792; first compound 0.253 µM
  relative viability: 0.949
NCI-H1792; first compound 0.8 µM
  relative viability: 0.884
NCI-H1792; first compound 2.53 µM
  relative viability: 0.99
EMC-BAC-2; first compound 0.08 µM
  relative viability: 0.843
EMC-BAC-2; first compound 0.253 µM
  relative viability: 0.751
EMC-BAC-2; first compound 0.8 µM
  relative viability: 0.778
EMC-BAC-2; first compound 2.53 µM
  relative viability: 0.754
HCC-827; first compound 0.08 µM
  relative viability: 0.944
HCC-827; first compound 0.253 µM
  relative viability: 0.955
HCC-827; first compound 0.8 µM
  relative viability: 0.946
HCC-827; first compound 2.53 µM
  relative viability: 0.987
SW 1573; first compound 0.08 µM
  relative viability: 0.923
SW 1573; first compound 0.253 µM
  relative viability: 0.745
SW 1573; first compound 0.8 µM
  relative viability: 0.822
SW 1573; first compound 2.53 µM
  relative viability: 0.856
NCI-H2009; first compound 0.08 µM
  relative viability: 1.05
NCI-H2009; first compound 0.253 µM
  relative viability: 0.947
NCI-H2009; first compound 0.8 µM
  relative viability: 0.995
NCI-H2009; first compound 2.53 µM
  relative viability: 1.06
NCI-H1755; first compound 0.08 µM
  relative viability: 0.891
NCI-H1755; first compound 0.253 µM
  relative viability: 0.887
NCI-H1755; first compound 0.8 µM
  relative viability: 0.826
NCI-H1755; first compound 2.53 µM
  relative viability: 0.873
NCI-H727; first compound 0.08 µM
  relative viability: 0.985
NCI-H727; first compound 0.253 µM
  relative viability: 0.825
NCI-H727; first compound 0.8 µM
  relative viability: 0.806
NCI-H727; first compound 2.53 µM
  relative viability: 0.844
NCI-H2228; first compound 0.08 µM
  relative viability: 0.548
NCI-H2228; first compound 0.253 µM
  relative viability: 0.369
NCI-H2228; first compound 0.8 µM
  relative viability: 0.451
NCI-H2228; first compound 2.53 µM
  relative viability: 0.441
NCI-H1437; first compound 0.08 µM
  relative viability: 0.924
NCI-H1437; first compound 0.253 µM
  relative viability: 0.853
NCI-H1437; first compound 0.8 µM
  relative viability: 0.977
NCI-H1437; first compound 2.53 µM
  relative viability: 0.989
HARA; first compound 0.08 µM
  relative viability: 1.03
HARA; first compound 0.253 µM
  relative viability: 0.993
HARA; first compound 0.8 µM
  relative viability: 1.02
HARA; first compound 2.53 µM
  relative viability: 1.18
COR-L 105; first compound 0.08 µM
  relative viability: 0.826
COR-L 105; first compound 0.253 µM
  relative viability: 0.665
COR-L 105; first compound 0.8 µM
  relative viability: 0.901
COR-L 105; first compound 2.53 µM
  relative viability: 1.07
A-427; first compound 0.08 µM
  relative viability: 0.858
A-427; first compound 0.253 µM
  relative viability: 0.91
A-427; first compound 0.8 µM
  relative viability: 0.904
A-427; first compound 2.53 µM
  relative viability: 0.84
NCI-H23; first compound 0.08 µM
  relative viability: 0.54
NCI-H23; first compound 0.253 µM
  relative viability: 0.552
NCI-H23; first compound 0.8 µM
  relative viability: 0.565
NCI-H23; first compound 2.53 µM
  relative viability: 0.593
LCLC-103H; first compound 0.08 µM
  relative viability: 0.932
LCLC-103H; first compound 0.253 µM
  relative viability: 0.965
LCLC-103H; first compound 0.8 µM
  relative viability: 0.97
LCLC-103H; first compound 2.53 µM
  relative viability: 1.05
CAL-12T; first compound 0.08 µM
  relative viability: 0.667
CAL-12T; first compound 0.253 µM
  relative viability: 0.553
CAL-12T; first compound 0.8 µM
  relative viability: 0.602
CAL-12T; first compound 2.53 µM
  relative viability: 0.712
NCI-H1915; first compound 0.08 µM
  relative viability: 0.968
NCI-H1915; first compound 0.253 µM
  relative viability: 0.879
NCI-H1915; first compound 0.8 µM
  relative viability: 0.957
NCI-H1915; first compound 2.53 µM
  relative viability: 0.945

Source: the supplement of paper PMC10307832
